Data published in ChEMBL document CHEMBL5352466, “New bioisosteric sulphur-containing choline kinase inhibitors with a tracked mode of action” (Eur J Med Chem, 2023).
pIC50: −log10 of the molar value. Calls of active or inactive are those of the source. The calls are words filed in the database; no cut-off is given here.

Columns and labels:
A549 [1] = test: Antiproliferative activity against human A549 cells assessed as inhibition of cell growth incubated for 72 hrs; type: functional
HT-29 = test: Antiproliferative activity against human HT-29 cells assessed as inhibition of cell growth incubated for 72 hrs; type: functional
HeLa [2] = test: Antiproliferative activity against human HeLa cells assessed as inhibition of cell growth incubated for 72 hrs; type: functional
Choline kinase alpha = Choline kinase alpha (Homo sapiens, UniProt P35790); test: Inhibition of human Choline kinase alpha 1 incubated for 10 mins by liquid-scintillation counter analysis; details: for pIC50: read-out: IC50
HeLa [3] = test: Induction of cell cycle arrest in human HeLa cells at 1 to 5 uM incubated for 24 hrs by PI staining based flow cytometry analysis; type: functional; details: dose 1-5 µM
[4] = Antiproliferative activity against human Astrocyte cells assessed as inhibition of cell growth incubated for 72 hrs by resazurin dye based assay; type: toxicity
HeLa [5] = test: Induction of apoptosis in human HeLa cells assessed as reduction in MCL-1 expression at 5 uM measured for 48 hrs by Western blotting analysis; type: functional, cell-based
HeLa [6] = test: Induction of apoptosis in human HeLa cells at 1 to 5 uM measured for 72 hrs by Annexin V/propidium iodide staining based flow cytometry analysis; type: functional, cell-based; details: dose 1-5 µM
HeLa [7] = test: Induction of apoptosis in human HeLa cells at 1 to 5 uM by Annexin V/propidium iodide staining based flow cytometry analysis; type: functional, cell-based; details: dose 1-5 µM, time 48-72 hrs, TDE = time-dependent effect
MCF7 = test: Antiproliferative activity against human MCF7 cells assessed as inhibition of cell growth incubated for 72 hrs; type: functional
Astrocyte = test: Induction of apoptosis in human Astrocyte cells assessed as reduction in MCL-1 expression at 5 uM measured for 48 hrs by Western blotting analysis; type: functional, cell-based
HeLa [8] = test: Induction of cell cycle arrest in human HeLa cells assessed as accumulation of cells at G1 phase at 1 to 5 uM incubated for 24 hrs by PI staining based flow cytometry analysis; type: functional; details: dose 1-5 µM
[9] = Antiproliferative activity against human MCF-10A cells assessed as inhibition of cell growth incubated for 72 hrs by resazurin dye based assay; type: toxicity
HeLa [10] = test: Induction of apoptosis in human HeLa cells assessed as increase in cleaved PARP-1 expression at 5 uM measured for 48 hrs by Western blotting analysis; type: functional, cell-based
A549 [11] = test: Induction of mitochondrial membrane potential depolarization in human A549 cells at 5 uM incubated for 24 hrs by JC-1 staining based flow cytometry; type: functional, cell-based
HeLa [12] = test: Induction of mitochondrial membrane potential depolarization in human HeLa cells at 1 to 5 uM incubated for 24 hrs by JC-1 staining based flow cytometry; type: functional, cell-based; details: dose 1-5 µM
HeLa [13] = test: Induction of apoptosis in human HeLa cells measured for 48 to 72 hrs by Annexin V/propidium iodide staining based flow cytometry analysis; type: functional, cell-based; details: dose 1-5 µM, time 48-72 hrs
A549 [14] = test: Induction of cell cycle arrest in human A549 cells at 1 to 5 uM incubated for 24 hrs by PI staining based flow cytometry analysis; type: functional; details: dose 1-5 µM
MDA-MB-231 = test: Antiproliferative activity against human MDA-MB-231 cells assessed as inhibition of cell growth incubated for 72 hrs; type: functional
[15] = Drug localization in cytosol of human MCF7 cells assessed as increase in fluorescence intensity at 8 uM by microscopic analysis; type: ADME, subcellular
Cell membrane = test: Induction of cell membrane disruption in human MCF7 cells at 8 uM measured after 90 mins; type: subcellular
[16] = Drug localization in cytosol of human MCF7 cells assessed as increase in fluorescence intensity at 8 uM measured after 15 mins by microscopic analysis; type: ADME, subcellular; details: 0.25 h
HeLa [17] = test: Induction of apoptosis in human HeLa cells at 5 uM measured for 72 hrs in presence of Z-VAD-fmk by Annexin V/propidium iodide staining based flow cytometry analysis; type: functional, cell-based
A549 [18] = test: Induction of apoptosis in human A549 cells at 5 uM measured for 72 hrs in presence of Z-VAD-fmk by Annexin V/propidium iodide staining based flow cytometry analysis; type: functional, cell-based

Choline kinase alpha, sequence (P35790 whole entry): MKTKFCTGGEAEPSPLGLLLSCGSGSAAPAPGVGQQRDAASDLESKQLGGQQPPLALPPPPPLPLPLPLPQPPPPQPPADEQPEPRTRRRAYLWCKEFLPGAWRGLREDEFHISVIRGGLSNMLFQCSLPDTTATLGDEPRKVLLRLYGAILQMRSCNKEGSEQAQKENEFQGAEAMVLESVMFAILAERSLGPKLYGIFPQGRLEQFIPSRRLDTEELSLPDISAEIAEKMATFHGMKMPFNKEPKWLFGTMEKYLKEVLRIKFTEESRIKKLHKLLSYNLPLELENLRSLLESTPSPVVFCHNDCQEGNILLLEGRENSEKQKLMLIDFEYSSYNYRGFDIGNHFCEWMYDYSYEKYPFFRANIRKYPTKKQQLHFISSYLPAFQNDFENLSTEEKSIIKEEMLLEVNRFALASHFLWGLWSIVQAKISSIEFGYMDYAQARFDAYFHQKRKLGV

SMILES | GI50 (A549 [1]) | GI50 (HT-29) | GI50 (HeLa [2]) | pIC50 (Choline kinase alpha) | GI50 (MCF7) | GI50 (MDA-MB-231) | other results
CN(C)c1cc[n+](Cc2ccc(SSc3ccc(C[n+]4ccc(N(C)C)cc4)cc3)cc2)cc1 | 2450 nM | > 10000 nM | 440 nM | 6.19 |  |  | 
CN(c1ccc(Cl)cc1)c1cc[n+](Cc2ccc(SSc3ccc(C[n+]4ccc(N(C)c5ccc(Cl)cc5)c5ccccc54)cc3)cc2)c2ccccc12 | > 10000 nM | > 10000 nM | > 10000 nM | 6.07 |  |  | 
CN(C)c1cc[n+](Cc2ccc(SCCSc3ccc(C[n+]4ccc(N(C)C)cc4)cc3)cc2)cc1.[Br-].[Br-] | 1380 nM | > 10000 nM | > 10000 nM |  |  | 4200 nM | IC50 (Choline kinase alpha): Not Determined(Insoluble)
CN(c1ccccc1)c1cc[n+](Cc2ccc(SCCSc3ccc(C[n+]4ccc(N(C)c5ccccc5)c5ccccc54)cc3)cc2)c2ccccc12 | 2020 nM | 5980 nM | 9060 nM | 5.76 | 4730 nM | 1970 nM | 
CN(c1ccccc1)c1cc[n+](Cc2ccc(SCCSc3ccc(C[n+]4ccc(N(C)c5ccccc5)c5ccsc54)cc3)cc2)c2sccc12 | 4050 nM | 6800 nM | 5250 nM | 5.85 | 3940 nM | 6680 nM | 
CN(c1ccc(Cl)cc1)c1cc[n+](Cc2ccc(SCCSc3ccc(C[n+]4ccc(N(C)c5ccc(Cl)cc5)c5ccsc54)cc3)cc2)c2sccc12 | 2660 nM | 6070 nM | > 10000 nM | 6.15 | 2370 nM | 2950 nM | 
c1cc2c(s1)c(N1CCCC1)nc[n+]2Cc1ccc(SSc2ccc(C[n+]3cnc(N4CCCC4)c4sccc43)cc2)cc1 | > 10000 nM | > 10000 nM | > 10000 nM | 6.24 |  |  | 
c1cc(SSc2ccc(C[n+]3ccc(N4CCCC4)cc3)cc2)ccc1C[n+]1ccc(N2CCCC2)cc1 | > 10000 nM | > 10000 nM | > 10000 nM | 6.44 |  |  | 
CN(c1ccc(Cl)cc1)c1cc[n+](Cc2ccc(SCCSc3ccc(C[n+]4ccc(N(C)c5ccc(Cl)cc5)c5ccccc54)cc3)cc2)c2ccccc12 | 2900 nM | 8900 nM | > 10000 nM | 5.99 | 3690 nM | 5870 nM | 
CN(c1ccccc1)c1nc[n+](Cc2ccc(SCCSc3ccc(C[n+]4cnc(N(C)c5ccccc5)c5sccc54)cc3)cc2)c2ccsc12 | 8200 nM | > 10000 nM | > 10000 nM | 5.59 | 9120 nM | 8940 nM | 
[Br-].[Br-].c1cc(SCCSc2ccc(C[n+]3ccc(N4CCCC4)cc3)cc2)ccc1C[n+]1ccc(N2CCCC2)cc1 | 1590 nM | 9060 nM | 8840 nM |  |  | 1750 nM | IC50 (Choline kinase alpha): Not Determined(Insoluble)

Further lines, with some results ahead:

GI50 (A549 [1]) | GI50 (HT-29) | GI50 (HeLa [2]) | pIC50 (Choline kinase alpha) | GI50 (MCF7) | GI50 (MDA-MB-231) | SMILES | other results
530 nM | 3000 nM | 260 nM |  | 1340 nM |  | Clc1ccc2c(N3CCCC3)cc[n+](Cc3ccc(SCCSc4ccc(C[n+]5ccc(N6CCCC6)c6ccc(Cl)cc65)cc4)cc3)c2c1 | Activity (HeLa [3]): inactive; GI50 at 72 h [4]: 5000 nM; Activity (HeLa [5]): Active; Activity (HeLa [6]): Active; Activity (HeLa [7]): Tde; Activity (Astrocyte): inactive; Activity (HeLa [8]): Active; GI50 at 72 h [9]: 2600 nM; Activity (HeLa [10]): Active; Activity (A549 [11]): Active; Activity (HeLa [12]): Active; Activity (HeLa [13]): Dose-Dependent Effect; Activity (A549 [14]): inactive
> 10000 nM | > 10000 nM | > 10000 nM |  |  |  | [Br-].[Br-].c1cc2c(s1)c(N1CCCCCC1)cc[n+]2Cc1ccc(SSc2ccc(C[n+]3ccc(N4CCCCCC4)c4sccc43)cc2)cc1 | IC50 (Choline kinase alpha): Not Determined(Insoluble)
> 10000 nM | > 10000 nM | > 10000 nM | 5.84 |  |  | Clc1ccc2c(N3CCCC3)cc[n+](Cc3ccc(SSc4ccc(C[n+]5ccc(N6CCCC6)c6ccc(Cl)cc65)cc4)cc3)c2c1 | 
1370 nM | 7480 nM | 9930 nM | 6.00 | 3110 nM | 2010 nM | c1cc2c(s1)c(N1CCCC1)cc[n+]2Cc1ccc(SCCSc2ccc(C[n+]3ccc(N4CCCC4)c4sccc43)cc2)cc1 | 
440 nM | 2630 nM | 10100 nM | 5.87 | 4340 nM | 1630 nM | [Br-].[Br-].c1cc2c(s1)c(N1CCCC1)nc[n+]2Cc1ccc(SCCSc2ccc(C[n+]3cnc(N4CCCC4)c4sccc43)cc2)cc1 | Drug uptake [15]: Active; Activity (Cell membrane): inactive; Drug uptake [16]: Active
6160 nM | > 10000 nM | 2200 nM | 6.46 |  |  | c1cc2c(s1)c(N1CCCC1)cc[n+]2Cc1ccc(SSc2ccc(C[n+]3ccc(N4CCCC4)c4sccc43)cc2)cc1 | 
4260 nM | > 10000 nM | 1230 nM | 6.49 |  |  | c1cc2c(N3CCCCCC3)nc[n+](Cc3ccc(SSc4ccc(C[n+]5cnc(N6CCCCCC6)c6ccsc65)cc4)cc3)c2s1 | 
> 10000 nM | > 10000 nM | > 10000 nM | 6.28 |  |  | c1cc2c(N3CCCCC3)nc[n+](Cc3ccc(SSc4ccc(C[n+]5cnc(N6CCCCC6)c6ccsc65)cc4)cc3)c2s1 | 
890 nM | 2090 nM | 2800 nM | 6.18 | 1460 nM | 1460 nM | c1cc2c(N3CCCCCC3)cc[n+](Cc3ccc(SCCSc4ccc(C[n+]5ccc(N6CCCCCC6)c6ccsc65)cc4)cc3)c2s1 | Activity (HeLa [3]): inactive; GI50 at 72 h [4]: 2500 nM; Activity (HeLa [5]): Active; Activity (HeLa [6]): Active; Activity (HeLa [7]): Tde; Activity (HeLa [17]): Active; Activity (Astrocyte): inactive; Activity (HeLa [8]): Active; Activity (HeLa [10]): Active; Activity (A549 [11]): Active; Activity (HeLa [12]): Active; Activity (HeLa [13]): Dose-Dependent Effect; Activity (A549 [18]): inactive; Activity (A549 [14]): inactive
1290 nM | 2410 nM | 4630 nM | 6.19 | 2120 nM | 1920 nM | c1cc2c(s1)c(N1CCCCCC1)cc[n+]2Cc1ccc(SCCSc2ccc(C[n+]3ccc(N4CCCCCC4)c4sccc43)cc2)cc1 | Activity (HeLa [3]): inactive; GI50 at 72 h [4]: 4400 nM; Activity (HeLa [5]): Active; Activity (HeLa [6]): Active; Activity (HeLa [7]): Tde; Activity (HeLa [17]): Active; Activity (Astrocyte): inactive; Activity (HeLa [8]): Active; GI50 at 72 h [9]: 2500 nM; Activity (HeLa [10]): Active; Activity (A549 [11]): Active; Activity (HeLa [12]): Active; Activity (HeLa [13]): Dose-Dependent Effect; Activity (A549 [18]): inactive; Activity (A549 [14]): inactive
920 nM | 2160 nM | 2990 nM | 5.36 | 1210 nM | 1230 nM | c1cc2c(N3CCCCC3)cc[n+](Cc3ccc(SCCSc4ccc(C[n+]5ccc(N6CCCCC6)c6ccsc65)cc4)cc3)c2s1 | 
